Literature values in patent publication US12551521B2, “Compositions including pine bark extract, berryfruit extract and a source of l-theanine and uses thereof” (AREPA IP LIMITED, priority 2017, dated 2026).

Settings: in vivo

## CCNC(=O)CC[C@H](N)C(=O)O [L-theanine, γ-glutamylethylamide]
  blood-brain barrier crossing: known to cross the blood-brain barrier
